Counter-ions that a name gives are not always drawn.

In the case of `Nc1nc(COc2ccccc2F)cc2nc(-c3ccco3)nn12` [Compound 30, 5-Amino-7-(2-fluorophenoxymethyl)-2-(2-furyl) [1,2,4]-triazolo[1,5-c]pyrimidine], the melting point lay in the range of 196.8 to 197.1 °C. The figure for `CC(=O)NCCNCc1ccc(-c2cc3nc(-c4ccco4)nn3c(N)n2)cc1` (as salt: hydrochloride) [Compound 16, 7-{4-[2-(N-acetylamino)ethylaminomethyl]phenyl}-5-amino-2-(2-furyl)[1,2,4]triazolo[1,5-c]pyrimidine monohydrochloride] is 238.5 to 240 °C; for `COc1cc(CNCc2cc3nc(-c4ccco4)nn3c(N)n2)cc(OC)c1` (as salt: hydrochloride) [Compound 43, 5-Amino-7-[(3,5-dimethoxybenzylamino)methyl]-2-(2-furyl)-[1,2,4]triazolo[1,5-c]pyrimidine dihydrochloride] it is 238.5 to 238.7 °C; for `Nc1nc(-c2cccc(CNCCc3ccccn3)c2)cc2nc(-c3ccco3)nn12` [Compound 19, 5-Amino-2-(2-furyl)-7-{3-[2-(2-pyridyl)ethylaminomethyl]-phenyl}[1,2,4]triazolo[1,5-c]pyrimidine] it is 159.2 to 159.4 °C. With `COc1ccc(CNCc2ccccc2-c2cc3nc(-c4ccco4)nn3c(N)n2)cc1OC` [Compound 3, 5-Amino-7-[2-(3,4-dimethoxybenzylaminomethyl)phenyl]-2-(2-furyl) [1,2,4]triazolo[1,5-c]pyrimidine] the figure was 168 to 168.7 °C; with `Nc1nc(-c2ccc(C=O)cc2)cc2nc(-c3ccco3)nn12` [Compound 10, 5-Amino-7-(4-formylphenyl)-2-(2-furyl)[1,2,4]triazolo[1,5-c]pyrimidine], 273.5 to 274 °C. The figure for `Nc1nc(COc2cccc(Br)c2)cc2nc(-c3ccco3)nn12` is 261.5 to 261.9 °C. With `CCN1CCN(Cc2ccc(-c3cc4nc(-c5ccco5)nn4c(N)n3)cc2)CC1` (as salt: hydrochloride), the melting point was 265 °C (dec.).

Take `COCCN(CCOC)C(=O)c1cc2nc(-c3ccco3)nn2c(N)n1` [Compound 88, 5-Amino-2-(2-furyl)[1,2,4]triazolo[1,5-c]pyrimidine-7-carboxylic acid [N,N-bis(2-methoxyethyl)]amide]: the melting point lay within 190.5 to 190.8 °C. The figure for `Cc1noc(C)c1-c1cc2nc(-c3ccco3)nn2c(N)n1` [Compound 57, 5-Amino-7-(3,5-dimethylisoxazol-4-yl)-2-(2-furyl)[1,2,4]-triazolo[1,5-c]pyrimidine] is 227.8 to 228.5 °C; for `CC(C)(O)CN1CC=C(c2cc3nc(-c4ccco4)nn3c(N)n2)CC1` it is 197.8 to 198.1 °C.

Compound `COCc1cc2nc(-c3ccco3)nn2c(N)n1` [Compound 23, 5-Amino-2-(2-furyl)-7-methoxymethyl[1,2,4]triazolo[1,5-c]pyrimidine] displayed a melting point of 167.2 to 167.6 °C.

On to `COc1cc(CNCc2ccccc2-c2cc3nc(-c4ccco4)nn3c(N)n2)cc(OC)c1` (as salt: hydrochloride), for which the melting point was in the range of 213.5 to 214.3 °C. For `Nc1nc(-c2csc(NCCN3CCOCC3)n2)cc2nc(-c3ccco3)nn12` [Compound 59, 5-Amino-2-(2-furyl)-7-[2-(2-morpholinoethylamino)thiazol-4-yl][1,2,4]triazolo[1,5-c]pyrimidine], the melting point was 274.7 to 275 °C (dec.). The compound `Nc1nc(-c2ccco2)cc2nc(-c3ccco3)nn12` yielded a melting point of 250.2 to 250.4 °C. With `COc1ccc(CNCc2cc3nc(-c4ccco4)nn3c(N)n2)cc1OC` (as salt: hydrochloride) [Compound 42, 5-Amino-7-(3,4-dimethoxybenzylaminomethyl)-2-(2-furyl)-[1,2,4]triazolo[1,5-c]pyrimidine dihydrochloride] the figure was 241.2 to 241.5 °C; with `Nc1nc(COc2cccnc2)cc2nc(-c3ccco3)nn12` [Compound 31, 5-Amino-2-(2-furyl)-7-(pyridin-3-yloxymethyl)[1,2,4]triazolo[1,5-c]pyrimidine], 253.5 to 254 °C; with `Nc1nc(-c2cncnc2)cc2nc(-c3ccco3)nn12` [Compound 56, 5-Amino-2-(2-furyl)-7-(5-pyrimidinyl)[1,2,4]triazolo[1,5-c]-pyrimidine], 271 °C (dec.). With `Nc1nc(C(=O)NCC2CCCCC2)cc2nc(-c3ccco3)nn12` the figure was 273.5 to 274 °C; with `COc1cc(CNCc2ccc(-c3cc4nc(-c5ccco5)nn4c(N)n3)cc2)cc(OC)c1` (as salt: hydrochloride) [Compound 17, 5-Amino-7-[4-(3,5-dimethoxybenzylaminomethyl)phenyl]-2-(2-furyl)[1,2,4]triazolo[1,5-c]pyrimidine monohydrochloride], 224.6 to 225.2 °C.

As for `Nc1nc(-c2ccc(CO)cc2)cc2nc(-c3ccco3)nn12` [Compound 61, 5-Amino-2-(2-furyl)-7-(4-hydroxymethylphenyl)[1,2,4]-triazolo[1,5-c]pyrimidine], the melting point fell in the range of 239.6 to 239.9 °C. With `Nc1nc(-c2ccncc2)cc2nc(-c3ccco3)nn12` [Compound 54, 5-Amino-2-(2-furyl)-7-(4-pyridyl)[1,2,4]triazolo[1,5-c]-pyrimidine] the figure was 279.2 to 279.9 °C. The figure for `CC(=O)NCCNCc1ccccc1-c1cc2nc(-c3ccco3)nn2c(N)n1` (as salt: hydrochloride) [Compound 7, 5-Amino-7-{2-[2-(N-acetylamino)ethylaminomethyl]phenyl}-2-(2-furyl)[1,2,4]triazolo[1,5-c]pyrimidine monohydrochloride] is 230.8 to 231.3 °C; for `Nc1nc(-c2ccccc2C=O)cc2nc(-c3ccco3)nn12` [Compound 2, 5-Amino-7-(2-formylphenyl)-2-(2-furyl)[1,2,4]triazolo[1,5-c]pyrimidine] it is 224 to 224.5 °C.

In the case of `CCN1CCN(Cc2ccccc2-c2cc3nc(-c4ccco4)nn3c(N)n2)CC1` (as salt: hydrochloride), the melting point was 253 to 253.4 °C. The figure for `Nc1nc(C(=O)NCCCn2ccnc2)cc2nc(-c3ccco3)nn12` [Compound 90, 5-Amino-2-(2-furyl)[1,2,4]triazolo[1,5-c]pyrimidine-7-carboxylic acid [3-(1-imidazolyl)propyl]amide] is 198.5 to 198.8 °C; for `CC(=O)NCCNC(=O)c1cc2nc(-c3ccco3)nn2c(N)n1` it is 233.8 to 234 °C. On to `Nc1nc(-c2ccccc2CNCCc2ccccn2)cc2nc(-c3ccco3)nn12` [Compound 4, 5-Amino-2-(2-furyl)-7-{2-[2-(2-pyridyl)ethylaminomethyl]-phenyl}[1,2,4]triazolo[1,5-c]pyrimidine], for which the melting point fell in the range of 179.2 to 180 °C. The figure for `Nc1nc(C(=O)NCc2ccc(F)c(F)c2)cc2nc(-c3ccco3)nn12` [Compound 82, 5-Amino-2-(2-furyl)[1,2,4]triazolo[1,5-c]pyrimidine-7-carboxylic acid (3,4-difluorobenzyl)amide] is 254.5 to 254.9 °C; for `Nc1nc(Cn2ccccc2=O)cc2nc(-c3ccco3)nn12` [Compound 37, 5-Amino-2-(2-furyl)-7-(2-oxopyridin-1-ylmethyl)[1,2,4]-triazolo[1,5-c]pyrimidine] it is 239.2 to 239.6 °C.

One may read the melting point as the temperature, or range, at which the solid turns liquid.

These data come from patent publication US20060058320A1, “[1,2,4] Triazolo[1,5-c]pyrimidine derivatives” (KYOWA HAKKO KOGYO CO., LTD., priority 2002, published 2006).
